In test [1] the test system is BV-2. The test is described as follows: Antiinflammatory activity against mouse BV-2 cells assessed as inhibition of LPS-induced nitric oxide release at 20 uM measured after 24 hrs by Griess reagent based ELISA relative to control. The format is functional. In general terms: Griess reagent forms a coloured azo dye with nitrite.
Test [2] deals with BV-2. Kind of test: Antiinflammatory activity against mouse BV-2 cells assessed as inhibition of LPS-induced TNF-alpha production at 2 to 20 uM measured after 24 hrs by ELISA. Particulars: dose 2-20 µM. In kind it is functional, cell-based. (ELISA stands for enzyme-linked immunosorbent assay.)
The subject of test [3] is BV-2. Kind of test: Antiinflammatory activity against mouse BV-2 cells assessed as inhibition of LPS-induced IFN-gamma production at 2 to 20 uM measured after 24 hrs by ELISA. In kind it is functional, cell-based. Particulars: dose 2-20 µM.
Test [4] concerns BV-2. The test is described as follows: Antiinflammatory activity against mouse BV-2 cells assessed as inhibition of LPS-induced decrease of IL-4 at 2 to 20 uM measured after 24 hrs by ELISA. In kind it is functional, cell-based. To be noted: dose 2-20 µM.
Test [5] has as its system BV-2. The test is described as follows: Antiinflammatory activity against mouse BV-2 cells assessed as inhibition of LPS-induced decrease of IL-10 at 2 to 20 uM measured after 24 hrs by ELISA. In kind it is functional, cell-based. Particulars: dose 2-20 µM.
The test system of test [6] is BV-2. The test is described as follows: Antiinflammatory activity against mouse BV-2 cells assessed as inhibition of LPS-induced iNOS mRNA expression at 20 uM measured after 24 hrs by SYBR green staining based RT-PCR analysis. In kind it is functional, cell-based.
In test [7] the test system is BV-2. Kind of test: Antiinflammatory activity against mouse BV-2 cells assessed as effect on LPS-induced Arg1 mRNA expression at 20 uM measured after 24 hrs by SYBR green staining based RT-PCR analysis. In kind it is functional, cell-based.
Test [8] deals with BV-2. The test is described as follows: Antiinflammatory activity against mouse BV-2 cells assessed as effect on LPS-induced CD206 mRNA expression at 20 uM measured after 24 hrs by SYBR green staining based RT-PCR analysis. The format is functional, cell-based.
Test [9] deals with BV-2. Kind of test: Antiinflammatory activity against mouse BV-2 cells assessed as effect on LPS-induced TGFbeta mRNA expression at 20 uM measured after 24 hrs by SYBR green staining based RT-PCR analysis. The format is functional, cell-based.
In test [10] the test system is Cortical neurone. The test is described as follows: Neuroprotective activity against amyloid beta (25 to 35 residues)-induced cell death in ICR mouse primary cortical neurons assessed as increase in cell viability at 20 uM measured after 2 days by CCK-8 assay. The format is functional, cell-based. Particulars: time 2.0 day. On the technique in general: Tetrazolium dyes change colour on reduction, which living cells bring about.

Test [11] relates to Cortical neurone. The test is described as follows: Neuroprotective activity against amyloid beta (25 to 35 residues)-induced neuritic atrophy in ICR mouse primary cortical neurons assessed as increase in length of MAP2-positive dendrite at 2 to 20 uM measured after 4 days by immunostaining based fluorescence microscopy. In kind it is functional, cell-based. To be noted: dose 2-20 µM, time 4.0 day.

SMILES strings stand for the structures. Calls of active or inactive are those of the source. The rule behind the calls is not given here.

On to `CC1=C[C@@](CO)(CCCC(/C=C(C)/C=C(\C)C[C@@H](C)c2oc(=O)c(C)c(O)c2C)C(=O)O)O[C@H]1C` (some centres undefined), for which the inhibition (commonly the share of the control response that was lost under treatment) at 20 µM in test [1] was > 50%.
Still for that read-out and setting: with `CCC(C)/C=C(\CO)CCCC(/C=C(C)/C=C(\C)C[C@@H](C)c1oc(=O)c(C)c(O)c1C)C(=O)O` (some centres undefined) the figure was > 50%.
Turning to `CC(=C\C(CCCc1cc(C)c(C)o1)C(=O)O)/C=C(\C)C[C@@H](C)c1oc(=O)c(C)c(O)c1C` (some centres undefined), the inhibition at 20 µM in [1] is > 50%. The inhibition result in test [2], in [3], in [4], in [5] and in test [6] was “Active” each time. Further, the result in test [7], in [8] and in test [9] was inactive. For the same compound, the outcome in test [10] and in [11] was Active.
As for `CCC(C)(O)/C=C(\CO)CCCC(/C=C(C)/C=C(\C)C[C@@H](C)c1oc(=O)c(C)c(O)c1C)C(=O)O` (some centres undefined), in test [1], the inhibition at 20 µM was > 50%.
